This data set deals with erythrocytes. The data set can be described thus: Hemolysis assay (Example 11). In kind it is cell-based. The arrangement: % Hemolysis Mean: dose or concentration left out as unconfirmed. Particulars: for % Hemolysis Mean: 1 h. As to the method: EDTA-blood was centrifuged at 800 g for 10 min, whereafter plasma and buffy coat were removed. The erythrocytes were washed three times and resuspended in 5% PBS, pH 7.4. The cells were then incubated with end-over-end rotation for 1 h at 37° C. in the presence of peptides ([…]). 2% Triton X-100 (Sigma-Aldrich) served as positive control. The samples were then centrifuged at 800 g for 10 min. The absorbance of hemoglobin release was measured at λ 540 nm and is in the plot expressed as % of TritonX-100 induced hemolysis.

Where a SMILES comes first, the peptide text is derived from it. Where no end group is shown, it is not given here. [ ]: non-standard residue; d: D form.

As for `CC[C@@H](C)[C@@H](NC(=O)[C@@H](Cc1ccc(O)cc1)NC(=O)[C@@H](CC(N)=O)NC(=O)[C@H](N)CS)C(=O)N[C@@H](C(=O)N[C@H](CCC(=O)O)C(=O)N[C@H](CC(C)C)C(=O)N[C@H](CCCNC(=N)N)C(=O)N[C@H](CCCNC(=N)N)C(=O)N[C@H](CCC(N)=O)C(=O)N[C@H](Cc1c[nH]cn1)C(=O)N[C@H](C)C(=O)N[C@H](CCCNC(=N)N)C(=O)N[C@H](C)C(=O)N[C@H](CO)C(=O)N[C@H](Cc1c[nH]cn1)C(=O)N[C@H](CC(C)C)C(=O)NCC(=O)N[C@H](CC(C)C)C(=O)N[C@H](C)C(=O)O)[C@H](C)O` [Peptide 182] (H-[dC][dN][dY][dI][dT][dE][dL][dR][dR][dQ][dH][dA][dR][dA][dS][dH][dL]G[dL][dA]-OH; N-terminus and C-terminus assumed), the “% Hemolysis Mean” value is 2.659%. With `CC[C@@H](C)[C@@H](NC(=O)[C@@H](Cc1ccc(O)cc1)NC(=O)[C@@H](CC(N)=O)NC(=O)[C@H](N)CS)C(=O)N[C@@H](C(=O)N[C@H](CCC(=O)O)C(=O)N[C@H](CC(C)C)C(=O)N[C@H](CC(C)C)C(=O)N[C@H](CCCNC(=N)N)C(=O)N[C@H](CCC(N)=O)C(=O)N[C@H](CC(C)C)C(=O)N[C@H](C)C(=O)N[C@H](CCCNC(=N)N)C(=O)N[C@H](C)C(=O)N[C@H](CO)C(=O)N[C@H](CCCCN)C(=O)N[C@H](CCCCN)C(=O)NCC(=O)N[C@H](CC(C)C)C(=O)N[C@H](C)C(=O)O)[C@H](C)O` [Peptide 183] (H-[dC][dN][dY][dI][dT][dE][dL][dL][dR][dQ][dL][dA][dR][dA][dS][dK][dK]G[dL][dA]-OH; N-terminus and C-terminus assumed), the “% Hemolysis Mean” value was determined as 5.128%. As for `CC[C@@H](C)[C@@H](NC(=O)[C@@H](Cc1ccc(O)cc1)NC(=O)[C@@H](CC(N)=O)NC(=O)[C@H](N)CS)C(=O)N[C@H](CCC(=O)O)C(=O)N[C@H](CCC(=O)O)C(=O)N[C@H](CC(C)C)C(=O)N[C@H](CCCNC(=N)N)C(=O)N[C@H](CCCNC(=N)N)C(=O)N[C@H](CCC(N)=O)C(=O)N[C@H](CC(C)C)C(=O)N[C@H](C)C(=O)N[C@H](CCCNC(=N)N)C(=O)N[C@H](C)C(=O)N[C@H](CC(C)C)C(=O)N[C@H](Cc1c[nH]cn1)C(=O)N[C@H](CCCCN)C(=O)NCC(=O)N[C@H](CC(C)C)C(=O)N[C@H](C)C(=O)O` [Peptide 184] (H-[dC][dN][dY][dI][dE][dE][dL][dR][dR][dQ][dL][dA][dR][dA][dL][dH][dK]G[dL][dA]-OH; N-terminus and C-terminus assumed), the “% Hemolysis Mean” value was 3.235%.

As for CKYITLLRRQLLRALKRGLR [Peptide 73], the “hemolytic activity” value is “low hemolytic activity”. Consider CNYIEELKRQLARALHKGLA [Peptide 145], for which the “% Hemolysis Mean” value worked out at 2.495%. On the same count and under the same terms, to CNYIEELKRQLARALKKGLA [Peptide 146] belongs 2.521%; to CNYIEELLRQKARALHKGLA [Peptide 162], 2.056%; to CNYIEELLRQKARALKKGLA [Peptide 164], 2.340%. Same read-out and setting: to CNYIEELLRQLARARHKGLA [Peptide 157] belongs 1.282%. On the same count and under the same terms, to CNYIEELLRQLARARKKGLA [Peptide 159] belongs 1.841%. As to CNYIEELLRQLARASKKGLA [Peptide 149], the “% Hemolysis Mean” value came to 1.506%. Same read-out and setting: to CNYIEELLRQLARATHKGLA [Peptide 151] belongs 1.626%; to CNYIEELLRQLARATKKGLA [Peptide 153], 1.755%. As for CNYIEELLRQRARALHKGLA [Peptide 166], the “% Hemolysis Mean” value came to 2.117%. On the same count and under the same terms, to CNYIEELLRQRARALKKGLA [Peptide 168] belongs 2.573%.

Regarding CNYIEELRRQLARALHKGLA [Peptide 47], the “hemolytic activity” value is listed as “low hemolytic activity” and the “% Hemolysis Mean” value stood at 2.323%.

On to CNYIEELRRQLARALHKWLA [Peptide 173], for which the “% Hemolysis Mean” value was determined as 8.148%. With CNYIEELRRQLARALKKGLA [Peptide 142], the “% Hemolysis Mean” value came out at 3.734%.
